Reference: the NIST ThermoML archive (doi:10.1016/j.jct.2017.06.001)

Assay: xn = mol fraction of the nth substance listed
Settings: 100 kPa, Liquid; for mass density: 308.15 K, Vibrating tube method; for speed of sound: 313.15 K, Frequency=5 MHz, Pulse-echo method

OCCCCCO [1,5-pentanediol] + O
Settings | mass density [kg/m3] | speed of sound [m/s]
x1 = 0.0002 | – | 1529.3
x1 = 0.0004 | – | 1529.9
x1 = 0.0006 | – | 1530.6
x1 = 0.0009 | – | 1531.5
x1 = 0.0013 | – | 1532.4
x1 = 0.0016 | – | 1533.4
x1 = 0.002 | – | 1534.5
x1 = 0.0025 | – | 1535.9
x1 = 0.0032 | – | 1537.6
x1 = 0.0039 | – | 1539.6
x1 = 0.0045 | – | 1541.2
x1 = 0.0052 | – | 1542.9
x1 = 0.0058 | – | 1544.6
x1 = 0.0065 | – | 1546.5
x1 = 0.0073 | – | 1548.3
x1 = 0.0081 | – | 1550.4
x1 = 0.0088 | – | 1552.1
x1 = 0.0097 | – | 1554.2
x1 = 0.0107 | – | 1556.6
x1 = 0.0118 | – | 1559
x1 = 0.013 | – | 1561.7
x1 = 0.0142 | – | 1564.4
x1 = 0.0153 | – | 1566.8
x1 = 0.0164 | – | 1569.2
x1 = 0.0176 | – | 1571.6
x1 = 0.0187 | – | 1573.8
x1 = 0.02 | – | 1576.4
x1 = 0.0214 | – | 1579
x1 = 0.0227 | – | 1581.5
x1 = 0.0243 | – | 1584.4
x1 = 0.0259 | – | 1587.2
x1 = 0.0276 | – | 1590
x1 = 0.0293 | – | 1592.8
x1 = 0.0308 | – | 1595.3
x1 = 0.0322 | – | 1597.4
x1 = 0.0341 | – | 1600.2
x1 = 0.036 | – | 1602.9
x1 = 0.0378 | – | 1605.4
x1 = 0.0395 | – | 1607.7
x1 = 0.0417 | – | 1610.5
x1 = 0.0441 | – | 1613.4
x1 = 0.0462 | – | 1615.8
x1 = 0.0486 | – | 1618.4
x1 = 0.0505 | – | 1620.4
x1 = 0.0522 | – | 1622.1
x1 = 0.0542 | – | 1624.1
x1 = 0.0571 | – | 1626.6
x1 = 0.0588 | – | 1628.1
x1 = 0.0608 | – | 1629.8
x1 = 0.0624 | – | 1631.2
x1 = 0.0648 | – | 1632.9
x1 = 0.0682 | – | 1635.4
x1 = 0.0705 | – | 1636.9
x1 = 0.0732 | – | 1638.6
x1 = 0.0767 | – | 1640.7
x1 = 0.0802 | – | 1642.6
x1 = 0.0837 | – | 1644.2
x1 = 0.0875 | – | 1646
x1 = 0.0918 | – | 1647.7
x1 = 0.0975 | – | 1649.7
x1 = 0.1013 | – | 1650.9
x1 = 0.106 | – | 1652.2
x1 = 0.1096 | – | 1653
x1 = 0.2503 | 995.17 | –
x1 = 0.3 | 994.06 | –
x1 = 0.3343 | 993.37 | –
x1 = 0.4171 | 991.68 | –
x1 = 0.454 | 990.78 | –
x1 = 0.5003 | 989.8 | –
x1 = 0.5362 | 989.1 | –
x1 = 0.6177 | 987.6 | –
x1 = 0.6478 | 987 | –
x1 = 0.7025 | 986.1 | –
x1 = 0.7504 | 985.3 | –
x1 = 0.7927 | 984.6 | –
x1 = 0.8605 | 983.4 | –
x1 = 0.9004 | 982.7 | –
x1 = 0.9496 | 981.7 | –
x1 = 1 | 980.7 | –
